Structures can show the parent of a compound that is named as a salt. Where two headings read alike, the source gives them in different places.
Key:
[1] = 28-day repeat-dose toxicity study in rats; type: in vivo; conditions: female, Sprague Dawley, rat, in vivo, 75 mg/kg
Procedure: Compound 1 was administered to Sprague Dawley rats by oral gavage at doses of 25, 75, and 250 mg/kg/day (females) and 40, 120, and 400 mg/kg/day (males) for 28 days. Compound 1-related mortality occurred in 8 of the 15 toxicity males administered 400 mg/kg/day beginning on Day 8 through 24. […] Target tissues included bone marrow, spleen, thymus, liver, lymph nodes, epididymides, seminal vesicles, prostate, testes, uterus, and ovaries.
(§1) Compound 1 tris salt was evaluated for safety in 7- and 28-day studies in rats and dogs. […] The NOAELs for this rat study were 120 mg/kg/day for males and 75 mg/kg/day for females. […] The NOAEL determined in the 28-day dog GLP study was 150 mg/kg/day. These correspond to human equivalent doses (HEDs) of: • Rat: 75 mg/kg×0.16=12 mg/kg • Dog: 150 mg/kg×0.54=81 mg/kg

[2] = Rat pharmacokinetics, oral gavage; type: in vivo, Sprague-Dawley rats; parameters: AUClast/D: unit not given here; conditions: for MRT inf: read-out: MRTInf—obs; for AUC(0-t) / Cmax / Tmax / AUC0-24 salt/ AUC0-24 free/ / AUC0-24: rat
Procedure: Groups, Dosing, and Collection. […] Three rats per group were perorally administered 20, 60, or 200 mg Compound 1 free acid or 25, 75, or 250 mg in 0.5% methylcellulose in Saline for a final concentration of 2, 6, or 20 mg/mL Compound 1 free acid or 2.5, 7.5, or […]. Plasma was collected at 5 min, 15 min, 30 min, 1 hour, 2 hour, 4 hour, 6 hour, 8 hour, and 24 hour post dose via jugular vein.
Stock and Dose Prep. Stock solutions were prepared by dissolving 2.47 mg of Compound 1 (free acid) in 2.470 mL DMSO with vortexing to obtain 1 mg/mL solution of Compound 1 (free acid), or 2.09 mg of Compound 1 (Tris salt) in […] DMSO with vortexing to obtain 1 mg/mL solution of Compound 1 (Tris salt). Dosing solutions were prepared by vortexing/sonicating the following solids in solvent:
LC MS-MS Analysis. Liquid Chromatography with tandem mass spectrometry was used to determine plasma concentrations of Compound 1 Free Acid and Compound 1 Tris Salt in plasma samples collected at prescribed time points.
Appropriate serial concentrations of working solutions were achieved by diluting stock solution of analyte with 50% acetonitrile in water solution. Five μL of working solutions (10, 20, 50, 100, 500, 1000, 5000, 8000, 10000 ng/mL) were added to 50 μL of the blank male SD Rat plasma to achieve calibration standards of 1˜1000 ng/ml (1, 2, 5, 10, 50, 100, 500, 800, 1000 ng/mL) in a total volume of 55 μL. Five quality control (QC) samples at 2 ng/mL, 5 ng/mL, 10 ng/mL, 50 ng/mL and 800 ng/mL for plasma were prepared independently of those used for the calibration curves. These QC samples were prepared on the day of analysis in the same way as calibration standards. 55 μL standards, 55 μL QC samples and 55 μL unknown samples (50 μL plasma/blood with 5 μL blank solution) were added to 200 μL of methanol containing internal standard (dexamethasone) mixture for precipitating protein respectively, and vortexed for 30 seconds. After centrifugation at 4° C. and 4000 rpm for 15 minutes. The supernatant was diluted with water with a ratio of 1:2. 2 μL of the supernatant was injected into the LC/MS/MS system for quantitative analysis.
Instrumentation included HALO 90A C18 2.7 μm 2.1×50 mm HPLC column, a Prominence degasser DGU-20A5R(C), liquid chromatograph Shimadzu LC-30AD with communications bus module CBM-20A and Auto SIL-20AC HT; and an AB Sciex Triple Quad 5500 LC/MS/MS instrument.

in vivo = test: in vivo; parameters: species or system beagle dogs; conditions: both sexes, beagle, dog, 150 mg/kg
Procedure: Compound 1 was administered to beagle dogs by oral gavage in a range finding study at doses of 30, 79, 240, or 790 mg/kg. […] Compound 1 was administered at doses of 10, 50, and 150 mg/kg/day in the pivotal repeat dose toxicity studies for 28 days.
as §1

[3] = Sprague-Dawley, plasma, rat PO 25 mg/kg, female, mean
[4] = Sprague-Dawley, plasma, rat PO 25 mg/kg, male, mean
[5] = Sprague-Dawley, plasma, rat PO 75 mg/kg, female, mean
[6] = Sprague-Dawley, plasma, rat PO 75 mg/kg, male, mean
[7] = Sprague-Dawley, plasma, rat PO 250 mg/kg, female, mean
[8] = Sprague-Dawley, plasma, rat PO 250 mg/kg, male, mean
[9] = Female, PO/20 mg/kg, Mean ± SD, 20 mg/kg
[10] = Female, PO/60 mg/kg, Mean ± SD, 60 mg/kg
[11] = Female, PO/200 mg/kg, Mean ± SD, 200 mg/kg

CC(C)(OCc1cc(-c2cccc(OC3CCC3)c2)n(-c2ccccc2N2CCC2)n1)C(=O)O [Compound 1 tris salt, tris salt of 2-((1-(2-(azetidin-1-yl)phenyl)-5-(3-cyclobutoxyphenyl)-1H-pyrazol-3-yl)methoxy)-2-methylpropanoic acid]
Human equivalent dose of NOAEL at 28 days [1]: 12 mg/kg | AUC(0-inf) [2, 3]: 1040 µg·h/mL | half-life [2, 3]: 6.53 h | MRT inf [2, 3]: 9.9 h | AUC(0-inf) [2, 4]: 357 µg·h/mL | half-life [2, 4]: 3.24 h | MRT inf [2, 4]: 6.1 h | AUC(0-inf) [2, 5]: 3270 µg·h/mL | half-life [2, 5]: 9.6 h | MRT inf [2, 5]: 14.7 h | AUC(0-inf) [2, 6]: 910 µg·h/mL | half-life [2, 6]: 2.91 h | MRT inf [2, 6]: 6.03 h | AUC(0-inf) [2, 7]: 16300 µg·h/mL | half-life [2, 7]: 40.5 h | MRT inf [2, 7]: 62 h | AUC(0-inf) [2, 8]: 2890 µg·h/mL | half-life [2, 8]: 12.2 h | MRT inf [2, 8]: 18.6 h | AUC(0-t) ([2]; female, Sprague-Dawley, plasma, po, 25 mg/kg, rat PO 25 mg/kg, female, mean, read-out: AUClast): 947 µg·h/mL | Cmax ([2]; female, Sprague-Dawley, plasma, po, 25 mg/kg, rat PO 25 mg/kg, female, mean, read-out: Cmax): 68.6 µg/mL | Tmax ([2]; female, Sprague-Dawley, plasma, po, 25 mg/kg, rat PO 25 mg/kg, female, mean, read-out: Tmax): 6 h | AUC(0-t) ([2]; female, Sprague-Dawley, plasma, po, 75 mg/kg, rat PO 75 mg/kg, female, mean, read-out: AUClast): 2540 µg·h/mL | Cmax ([2]; female, Sprague-Dawley, plasma, po, 75 mg/kg, rat PO 75 mg/kg, female, mean, read-out: Cmax): 171 µg/mL | Tmax ([2]; female, Sprague-Dawley, plasma, po, 75 mg/kg, rat PO 75 mg/kg, female, mean, read-out: Tmax): 5.33 h | AUC(0-t) ([2]; female, Sprague-Dawley, plasma, po, 250 mg/kg, rat PO 250 mg/kg, female, mean, read-out: AUClast): 4470 µg·h/mL | Cmax ([2]; female, Sprague-Dawley, plasma, po, 250 mg/kg, rat PO 250 mg/kg, female, mean, read-out: Cmax): 223 µg/mL | Tmax ([2]; female, Sprague-Dawley, plasma, po, 250 mg/kg, rat PO 250 mg/kg, female, mean, read-out: Tmax): 6.67 h | Total drug exposure across time (AUClast and AUCInf) compared with free acid ([2]; male and female rats): higher | AUC(0-t) ([2]; male, Sprague-Dawley, plasma, po, 25 mg/kg, rat PO 25 mg/kg, male, mean, read-out: AUClast): 352 µg·h/mL | Cmax ([2]; male, Sprague-Dawley, plasma, po, 25 mg/kg, rat PO 25 mg/kg, male, mean, read-out: Cmax): 44.2 µg/mL | Tmax ([2]; male, Sprague-Dawley, plasma, po, 25 mg/kg, rat PO 25 mg/kg, male, mean, read-out: Tmax): 2.86 h | AUC(0-t) ([2]; male, Sprague-Dawley, plasma, po, 25 mg/kg, Male, PO/25 mg/kg, Mean ± SD, read-out: AUC0-24): 352 µg·h/mL | Cmax ([2]; male, Sprague-Dawley, plasma, po, 25 mg/kg, Male, PO/25 mg/kg, Mean ± SD, read-out: Cmax): 44.2 µg/mL | Tmax ([2]; male, Sprague-Dawley, plasma, po, 25 mg/kg, Male, PO/25 mg/kg, Mean ± SD, read-out: Tmax): 2.9 ± 4.5 h | AUC(0-t) ([2]; male, Sprague-Dawley, plasma, po, 75 mg/kg, rat PO 75 mg/kg, male, mean, read-out: AUClast): 906 µg·h/mL | Cmax ([2]; male, Sprague-Dawley, plasma, po, 75 mg/kg, rat PO 75 mg/kg, male, mean, read-out: Cmax): 92.3 µg/mL | Tmax ([2]; male, Sprague-Dawley, plasma, po, 75 mg/kg, rat PO 75 mg/kg, male, mean, read-out: Tmax): 4 h | AUC(0-t) ([2]; male, Sprague-Dawley, plasma, po, 75 mg/kg, Male, PO/75 mg/kg, Mean ± SD, read-out: AUC0-24): 906 µg·h/mL | Cmax ([2]; male, Sprague-Dawley, plasma, po, 75 mg/kg, Male, PO/75 mg/kg, Mean ± SD, read-out: Cmax): 92.3 µg/mL | Tmax ([2]; male, Sprague-Dawley, plasma, po, 75 mg/kg, Male, PO/75 mg/kg, Mean ± SD, read-out: Tmax): 4 ± 2 h | AUC(0-t) ([2]; male, Sprague-Dawley, plasma, po, 250 mg/kg, rat PO 250 mg/kg, male, mean, read-out: AUClast): 2090 µg·h/mL | Cmax ([2]; male, Sprague-Dawley, plasma, po, 250 mg/kg, rat PO 250 mg/kg, male, mean, read-out: Cmax): 144 µg/mL | Tmax ([2]; male, Sprague-Dawley, plasma, po, 250 mg/kg, rat PO 250 mg/kg, male, mean, read-out: Tmax): 5.33 h | AUC(0-t) ([2]; male, Sprague-Dawley, plasma, po, 250 mg/kg, Male, PO/250 mg/kg, Mean ± SD, read-out: AUC0-24): 2090 µg·h/mL | Cmax ([2]; male, Sprague-Dawley, plasma, po, 250 mg/kg, Male, PO/250 mg/kg, Mean ± SD, read-out: Cmax): 144 µg/mL | Tmax ([2]; male, Sprague-Dawley, plasma, po, 250 mg/kg, Male, PO/250 mg/kg, Mean ± SD, read-out: Tmax): 5.3 ± 1.1 h | AUClast/D ([2]; rat PO 25 mg/kg, female, mean): 37897 | AUC—% Extrap—obs ([2]; rat PO 25 mg/kg, female, mean): 9% | AUClast/D ([2]; rat PO 25 mg/kg, male, mean): 14077 | AUC—% Extrap—obs ([2]; rat PO 25 mg/kg, male, mean): 1.28% | AUClast/D ([2]; rat PO 75 mg/kg, female, mean): 33882 | AUC—% Extrap—obs ([2]; rat PO 75 mg/kg, female, mean): 18.5% | AUClast/D ([2]; rat PO 75 mg/kg, male, mean): 12078 | AUC—% Extrap—obs ([2]; rat PO 75 mg/kg, male, mean): 0.473% | AUClast/D ([2]; rat PO 250 mg/kg, female, mean): 17869 | AUC—% Extrap—obs ([2]; rat PO 250 mg/kg, female, mean): 59.9% | AUClast/D ([2]; rat PO 250 mg/kg, male, mean): 8340 | AUC—% Extrap—obs ([2]; rat PO 250 mg/kg, male, mean): 26.5% | AUC0-24 salt/ AUC0-24 free/ ([2]; Female, PO/20 mg/kg): 1.07 | AUC0-24 [2, 9]: 947,000 ± 135,000 ng h/mL | Cmax [2, 9]: 68,600 ± 6400 ng/mL | AUC0-24 salt/ AUC0-24 free/ ([2]; Female, PO/60 mg/kg): 1.78 | AUC0-24 [2, 10]: 2,540,000 ± 503,000 ng h/mL | Cmax [2, 10]: 171,000 ± 11,600 ng/mL | AUC0-24 salt/ AUC0-24 free/ ([2]; Female, PO/200 mg/kg): 1.57 | AUC0-24 [2, 11]: 4,470,000 ± 705,000 ng h/mL | Cmax [2, 11]: 223,000 ± 29,900 ng/mL | Tmax [2, 11]: 6.7 ± 1.1 h | AUC0-24 salt/ AUC0-24 free/ ([2]; Male, PO/25 mg/kg): 2.11 | AUC0-24 salt/ AUC0-24 free/ ([2]; Male, PO/75 mg/kg): 2.03 | AUC0-24 salt/ AUC0-24 free/ ([2]; Male, PO/250 mg/kg): 1.89 | Human equivalent dose of NOAEL at 28 days (in vivo): 81 mg/kg

Source: US20250179049A1, “SALTS OF HETEROCYCLIC INHIBITORS OF MONOCARBOXYLATE TRANSPORTER 4 FOR THE TREATMENT OF DISEASE” (Vettore, LLC, priority 2022, published 2025)
